Measured values published in ChEMBL document CHEMBL1201862, “PubChem BioAssay data set” (2004).
The source made the active and inactive calls. For most assays here, no stated cut-off is given here; in the data, actives have a measured IC50 and inactives only a lower limit.

Key:
Caspase-3 = target: T1, Caspase-3 (Homo sapiens, UniProt P42574); type: functional;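 further: Dose-response selectivity test against caspase-3 for candidate inhibitors of sentrin-specific proteases (SENPs)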
T1 sequence (P42574 whole entry): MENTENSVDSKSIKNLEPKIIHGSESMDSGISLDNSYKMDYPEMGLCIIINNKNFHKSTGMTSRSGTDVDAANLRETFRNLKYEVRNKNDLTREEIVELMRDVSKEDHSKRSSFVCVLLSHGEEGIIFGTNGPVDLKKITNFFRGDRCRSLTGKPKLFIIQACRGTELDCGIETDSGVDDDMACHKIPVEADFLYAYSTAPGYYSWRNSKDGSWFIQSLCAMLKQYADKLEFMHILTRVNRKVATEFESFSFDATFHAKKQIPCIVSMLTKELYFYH

[1] = target: Serine/threonine-protein phosphatase PP1-alpha catalytic subunit (Homo sapiens, UniProt P62136); test: PP1 phosphatase inhibitors, dose response, biochemical, fluorescence (AID 2394)
Chain of Serine/threonine-protein phosphatase PP1-alpha catalytic subunit (P62136 whole entry): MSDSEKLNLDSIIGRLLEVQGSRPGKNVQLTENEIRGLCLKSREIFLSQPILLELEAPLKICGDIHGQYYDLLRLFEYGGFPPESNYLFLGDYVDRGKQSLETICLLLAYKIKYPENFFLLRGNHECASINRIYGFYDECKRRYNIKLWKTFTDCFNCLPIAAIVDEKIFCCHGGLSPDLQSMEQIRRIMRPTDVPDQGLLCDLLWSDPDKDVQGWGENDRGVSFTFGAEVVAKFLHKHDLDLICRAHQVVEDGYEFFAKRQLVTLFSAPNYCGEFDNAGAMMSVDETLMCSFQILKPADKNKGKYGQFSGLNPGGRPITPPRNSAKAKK

[2] = target: T2, Sentrin-specific protease 6 (Homo sapiens, UniProt Q9GZR1); test: SAR Analysis of small molecule inhibitors of Sentrin-specific protease 6 (SENP6) using a Luminescent assay. [Related pubchem assays (depositor defined):AID2582, AID2599]; type: functional
T2 sequence (Q9GZR1 whole entry): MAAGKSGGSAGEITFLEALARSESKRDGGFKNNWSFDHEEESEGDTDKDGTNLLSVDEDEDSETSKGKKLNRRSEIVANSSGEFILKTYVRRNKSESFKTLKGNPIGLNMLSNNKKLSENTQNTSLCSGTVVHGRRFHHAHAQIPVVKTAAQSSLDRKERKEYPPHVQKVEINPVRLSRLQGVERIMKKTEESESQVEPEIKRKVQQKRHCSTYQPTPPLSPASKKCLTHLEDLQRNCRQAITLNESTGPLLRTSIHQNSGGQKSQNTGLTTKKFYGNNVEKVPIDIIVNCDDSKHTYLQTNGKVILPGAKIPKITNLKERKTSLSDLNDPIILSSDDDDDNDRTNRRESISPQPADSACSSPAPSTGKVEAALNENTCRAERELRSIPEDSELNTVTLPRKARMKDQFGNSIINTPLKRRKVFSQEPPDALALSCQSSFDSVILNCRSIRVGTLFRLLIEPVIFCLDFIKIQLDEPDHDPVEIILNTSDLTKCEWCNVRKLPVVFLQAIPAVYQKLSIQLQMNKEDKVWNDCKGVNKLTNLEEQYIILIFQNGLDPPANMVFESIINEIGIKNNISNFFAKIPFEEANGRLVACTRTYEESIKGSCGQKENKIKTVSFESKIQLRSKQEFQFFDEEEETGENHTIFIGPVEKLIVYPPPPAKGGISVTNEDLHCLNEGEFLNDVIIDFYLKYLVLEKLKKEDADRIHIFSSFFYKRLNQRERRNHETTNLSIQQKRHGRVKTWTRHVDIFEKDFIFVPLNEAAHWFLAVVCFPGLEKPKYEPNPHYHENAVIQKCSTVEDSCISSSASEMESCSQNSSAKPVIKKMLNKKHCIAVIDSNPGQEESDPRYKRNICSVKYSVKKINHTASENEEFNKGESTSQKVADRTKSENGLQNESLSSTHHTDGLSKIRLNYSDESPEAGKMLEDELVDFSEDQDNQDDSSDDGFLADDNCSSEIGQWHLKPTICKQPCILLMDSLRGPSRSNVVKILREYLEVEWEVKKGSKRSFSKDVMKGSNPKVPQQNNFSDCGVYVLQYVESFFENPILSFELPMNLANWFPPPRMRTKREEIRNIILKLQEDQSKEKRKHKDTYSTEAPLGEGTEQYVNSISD

SUMO-activating enzyme = SUMO-activating enzyme (Homo sapiens, UniProt Q9UBT2); test: inhibitors of in vitro SUMOylation cascade, primary screen, biochemical, HTRF, uHTS (AID 2006); type: protein-complex assay
Chain of SUMO-activating enzyme (Q9UBE0 whole entry): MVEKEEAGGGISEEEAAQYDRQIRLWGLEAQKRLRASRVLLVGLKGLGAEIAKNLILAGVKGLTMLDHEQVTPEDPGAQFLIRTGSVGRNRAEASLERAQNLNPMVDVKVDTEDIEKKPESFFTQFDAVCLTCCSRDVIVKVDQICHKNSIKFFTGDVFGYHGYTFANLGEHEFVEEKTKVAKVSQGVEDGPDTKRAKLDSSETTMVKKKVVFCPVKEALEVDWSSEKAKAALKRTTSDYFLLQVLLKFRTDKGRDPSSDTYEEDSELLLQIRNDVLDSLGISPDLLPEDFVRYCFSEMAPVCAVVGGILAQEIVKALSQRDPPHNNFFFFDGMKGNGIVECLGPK
Chain of SUMO-activating enzyme (Q9UBT2 whole entry): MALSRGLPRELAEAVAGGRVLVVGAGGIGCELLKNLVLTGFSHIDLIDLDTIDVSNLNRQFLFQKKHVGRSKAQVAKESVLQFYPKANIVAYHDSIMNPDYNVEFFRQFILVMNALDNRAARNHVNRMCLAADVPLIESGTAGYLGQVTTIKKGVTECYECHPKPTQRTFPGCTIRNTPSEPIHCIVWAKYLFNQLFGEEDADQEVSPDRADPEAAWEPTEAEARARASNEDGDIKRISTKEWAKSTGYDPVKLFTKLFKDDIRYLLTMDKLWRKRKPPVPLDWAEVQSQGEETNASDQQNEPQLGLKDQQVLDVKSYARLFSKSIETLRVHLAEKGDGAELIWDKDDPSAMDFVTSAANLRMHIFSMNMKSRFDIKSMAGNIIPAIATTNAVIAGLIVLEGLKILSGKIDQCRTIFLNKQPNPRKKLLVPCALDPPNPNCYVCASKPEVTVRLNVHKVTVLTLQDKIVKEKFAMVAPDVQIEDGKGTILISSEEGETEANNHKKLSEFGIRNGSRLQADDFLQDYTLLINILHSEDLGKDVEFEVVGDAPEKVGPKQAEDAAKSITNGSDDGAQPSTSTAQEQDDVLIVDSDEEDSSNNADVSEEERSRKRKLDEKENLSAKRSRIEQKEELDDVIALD

Streptokinase A = target: T3, Streptokinase A (Streptococcus pyogenes serotype M1, UniProt P10520); test: S. pyogenes streptokinase expression inhibitors, potency, dose response, plasminogen activation absorbance, OD405 (AID 1914); type: functional, Streptococcus pyogenes M1 GAS;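 further: secreted streptokinase activity via plasminogen activation per viability signal from cell pellet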
T3 sequence (P10520 whole entry): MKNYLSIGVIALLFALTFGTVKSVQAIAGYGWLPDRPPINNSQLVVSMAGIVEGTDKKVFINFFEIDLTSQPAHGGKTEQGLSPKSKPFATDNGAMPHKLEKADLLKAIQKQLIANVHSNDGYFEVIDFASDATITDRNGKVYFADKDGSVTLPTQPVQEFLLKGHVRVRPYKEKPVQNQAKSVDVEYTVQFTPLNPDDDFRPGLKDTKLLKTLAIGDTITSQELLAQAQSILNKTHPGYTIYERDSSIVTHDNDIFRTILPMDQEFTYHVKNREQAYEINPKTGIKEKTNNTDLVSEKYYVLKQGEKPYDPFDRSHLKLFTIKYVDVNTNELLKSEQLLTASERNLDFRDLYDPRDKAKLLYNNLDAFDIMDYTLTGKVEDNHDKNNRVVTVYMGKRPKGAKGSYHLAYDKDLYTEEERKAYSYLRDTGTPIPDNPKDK

**Q.** What does the source list for `Cc1ccc(C(=O)NNc2cc(N3CCCC3)nc(N3CCCC3)n2)cc1`?
**A.** IC50 (Caspase-3): > 100 µM (inactive); IC50 [1]: 64 µM (not active); IC50 [2]: 2.3 µM (active)

**Q.** With `COC(=O)c1cccc(-c2ccc(C(c3c(C)n[nH]c3O)c3c(C)n[nH]c3O)o2)c1` as the compound, how does the IC50 (SUMO-activating enzyme) read?
**A.** The IC50 was > 100 µM (inactive).

**Q.** `Cc1cc(/C=C2\SC(=S)N(C)C2=O)c(C)n1-c1ccc(O)cc1` was tested. Which EC50 (Streptokinase A) did it give?
**A.** The EC50 was > 150 µM (not active).
